Data published in patent US20090238810A1, “OPHTHALMIC COMPOSITION” (Menicon Co., Ltd., priority 2006, published 2009).

Tests used:
[1] = tested on: corneal epithelium of DE mice; test: Corneal fluorescein staining in experimental mouse model of dry eye (DE mice); type: in vivo, C57BL/6J mice
Method: (§1) C57BL/6J mice aged 10 to 12 weeks were used for studies. All the studies were performed in accordance with the ARVO Statement for the Use of Animals in Ophthalmic and Vision Research.
(§2) The mice were subcutaneously injected with 0.5 mg/0.2 ml of scopolamine hydrobromide four times a day for 5 days. Desiccating environmental stress was created by placing a mouse cage in a blower hood with continuous air flow blower (room temperature of […] and relative humidity of 60%±10%). Tear production of each mouse was evaluated before the treatment, and also evaluated on third and fifth days of the treatment.
(§3) During the desiccation treatment, one of the eyes of each mouse was treated with eye drops including ApoA1 (Sigma-Aldrich, Japan) or with eye drops including ApoA1 and D-pantethine (Sigma-Aldrich, Japan), while PBS was administrated to the other eye of each mouse as a control. 5 μl of the respective eye drops was administered four times a day during the desiccation treatment for five days. All the ophthalmic compositions were formulated in PBS, and the osmolarity and the pH value of the compositions were adjusted to 290 to 300 mOsm/L and pH 7.4, respectively. […] To prepare one liter of 0.01 M PBS, there are needed the followings:
Corneal fluorescein staining was evaluated 10 minutes after topical application of 1 μL of 1% sodium fluorescein (Sigma-Aldrich, Japan) to mouse eyes, which were treated as described above, and examined under a light microscope (Leica Microsystems Inc., Deerfield, USA) and photographed with a digital camera (CAMEDIA, Olympus Optical Co. Ltd., Japan) fitted to the microscope.
In TABLES 2 and 3 below, X represents a ratio of an area which was subjected to a punctuate staining to a total area of a cornea.

[2] = tested on: corneal epithelium of DE mice; test: Histopathologic study: corneal epithelial thickness in DE mice; type: in vivo, C57BL/6J mice
Method: as §1, §2, §3
Mice eyeballs were surgically excised, and fixed with neutral-buffered formalin (10%) and embedded in paraffin. Then, 5 μm thick histological sections were cut and stained with hematoxylin and eosin. […] Microphotometric measurement of the thickness was done by using OB-M, 1/100, micro, AX0001 (Olympus Optical Co. Ltd., Japan). The corneal epithelial thickness was measured to an accuracy of 10 μm.
In this EXAMPLE, there were used 6 to 8 corneas of each of the following groups of mice: (a) normal mice, (b) DE mice, (c) DE mice treated with 0.04 w/v % of ApoA1, and (d) DE mice treated with PBS.

[3] = DE mice, various concentrations

For apolipoprotein A-1 [ApoA1], the “most effective concentration of ApoA1, corneal staining scores” value ([1]; 0.01, 0.04 or 0.1 w/v % ApoA1 tested, DE mice (FIG. 10)) was 0.1 w/v %, the “conclusion of corneal fluorescein staining experiments: effect on dry eye syndrome” value [1, 3] was “significantly effective” and the “average corneal staining score, less than that of the PBS group” value ([1]; eye drops 0.04 w/v % ApoA1, 5 μl four times a day for five days, six DE mice, other eye PBS (FIG. 8)) was “about 25%”. The “effect on corneal epithelium erosion due to desiccation (grading scores and quantitative measurement)” value ([1]; eye drops 0.04 w/v % ApoA1, DE mice) was “protective effects”, the “quantitative measurement of fluorescein stained area (NIH ImageJ), average score less than that of the PBS group” value ([1]; eye drops 0.04 w/v % ApoA1, DE mice, data not shown) was 20% and the “most effective concentration of ApoA1, corneal epithelial thickness” value ([2]; 0.01, 0.04, 0.1 w/v % ApoA1 tested, DE mice (FIG. 15)) was 0.1 w/v %. The “thinning of the cell layers accompanied by detachment of the corneal epithelium” value ([2]; DE mice treated with 0.04 w/v % ApoA1 vs PBS (FIGS. 12 and 13)) was “significantly greater in the PBS-treated eyes compared with the ApoA1-treated eyes” and the “conclusion of corneal epithelial thickness experiments: restriction of thinning of corneal epithelium” value [2, 3] was “extremely effective”.
